From ChEMBL document CHEMBL1201861, “Genomics of Drug Sensitity in Cancer screening data, Wellcome Trust Sanger Institute”

Key:
Assay type in all cases: functional, cell-based
[1] = system: NCI-H128; assay: SANGER: Inhibition of human NCI-H128 cell growth in a cell viability assay.
[2] = system: SKM-1; assay: SANGER: Inhibition of human SKM-1 cell growth in a cell viability assay.
[3] = system: ECC12; assay: cells; conditions: Homo sapiens
Description: SANGER: Inhibition of human ECC12 cell growth in a cell viability assay.

[4] = system: RL95-2; assay: cells; conditions: Homo sapiens;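 further: RL95-2 growth inhibition determined through a cell viability readout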
Description: SANGER: Inhibition of human RL95-2 cell growth in a cell viability assay.

[5] = system: NCI-H2227; assay: cells; conditions: Homo sapiens;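 further: growth inhibition of the human cell line, read out with a cell viability assay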
Description: SANGER: Inhibition of human NCI-H2227 cell growth in a cell viability assay.

[6] = system: CRO-AP2; assay: SANGER: Inhibition of human CRO-AP2 cell growth in a cell viability assay.
[7] = system: EW-12; assay: SANGER: Inhibition of human EW-12 cell growth in a cell viability assay.
[8] = system: NCI-H1734; assay: cells; conditions: Homo sapiens;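 further: growth inhibition of human NCI-H1734 cells, read out with a cell viability assay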
Description: SANGER: Inhibition of human NCI-H1734 cell growth in a cell viability assay.

[9] = system: Caov-4; assay: cells; conditions: Homo sapiens
Description: SANGER: Inhibition of human Caov-4 cell growth in a cell viability assay.

[10] = system: Calu-1; assay: SANGER: Inhibition of human Calu-1 cell growth in a cell viability assay.
[11] = system: MFE-296; assay: SANGER: Inhibition of human MFE-296 cell growth in a cell viability assay.
[12] = system: SK-CO-1; assay: cells; conditions: Homo sapiens;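 further: growth inhibition of SK-CO-1 cells, determined by a viability readout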
Description: SANGER: Inhibition of human SK-CO-1 cell growth in a cell viability assay.

[13] = system: Caov-3 cell line; assay: cells; conditions: Homo sapiens;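 further: cell growth inhibition read out by a viability assay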
Description: SANGER: Inhibition of human Caov-3 cell growth in a cell viability assay.

[14] = system: COLO 205; assay: cells; conditions: Homo sapiens
Description: SANGER: Inhibition of human COLO-205 cell growth in a cell viability assay.

[15] = system: CCF-STTG1; assay: cells; conditions: Homo sapiens;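 further: growth inhibition of human CCF-STTG1 cells, determined with a cell viability read-out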
Description: SANGER: Inhibition of human CCF-STTG1 cell growth in a cell viability assay.

[16] = system: DMS-53; assay: cells; conditions: Homo sapiens;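 further: cell viability assay measuring growth inhibition of human DMS-53 cells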
Description: SANGER: Inhibition of human DMS-53 cell growth in a cell viability assay.

[17] = system: NCI-H1618; assay: cells; conditions: Homo sapiens;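 further: growth inhibition of human NCI-H1618 cells, measured by a cell viability assay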
Description: SANGER: Inhibition of human NCI-H1618 cell growth in a cell viability assay.

[18] = system: EFE-184; assay: cells; conditions: Homo sapiens
Description: SANGER: Inhibition of human EFE-184 cell growth in a cell viability assay.

[19] = system: NCI-H838; assay: cells; conditions: Homo sapiens;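 further: growth inhibition of human NCI-H838 cells, read out by a cell viability assay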
Description: SANGER: Inhibition of human NCI-H838 cell growth in a cell viability assay.

[20] = system: EW-7; assay: SANGER: Inhibition of human EW-7 cell growth in a cell viability assay.
[21] = system: SNU-475; assay: cells; conditions: Homo sapiens
Description: SANGER: Inhibition of human SNU-475 cell growth in a cell viability assay.

[22] = system: DV-90; assay: cells; conditions: Homo sapiens;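 further: Read-out is a viability assay, with IC50 reflecting the drop in DV-90 cell growth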
Description: SANGER: Inhibition of human DV-90 cell growth in a cell viability assay.

[23] = system: MES-SA; assay: cells; conditions: Homo sapiens;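 further: growth inhibition of human MES-SA cells, read out with a cell viability assay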
Description: SANGER: Inhibition of human MES-SA cell growth in a cell viability assay.

[24] = system: C-4-II; assay: SANGER: Inhibition of human C-4-II cell growth in a cell viability assay.
[25] = system: IPC-298; assay: SANGER: Inhibition of human IPC-298 cell growth in a cell viability assay.
[26] = system: SNG-M; assay: cells; conditions: Homo sapiens
Description: SANGER: Inhibition of human SNG-M cell growth in a cell viability assay.

[27] = system: TT; assay: cells; conditions: Homo sapiens
Description: SANGER: Inhibition of human TT cell growth in a cell viability assay.

[28] = system: HCC1143; assay: cells; conditions: Homo sapiens;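 further: growth inhibition of human HCC1143 cells, read out with a cell viability assay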
Description: SANGER: Inhibition of human HCC1143 cell growth in a cell viability assay.

[29] = system: NCI-H2107; assay: SANGER: Inhibition of human NCI-H2107 cell growth in a cell viability assay.
[30] = system: KP-N-RT-BM-1; assay: SANGER: Inhibition of human KP-N-RT-BM-1 cell growth in a cell viability assay.
[31] = system: CP67-MEL; assay: SANGER: Inhibition of human CP67-MEL cell growth in a cell viability assay.

For `Cc1ccc(NC(=O)c2cccc(C(C)(C)C#N)c2)cc1Nc1ccc2ncn(C)c(=O)c2c1`, the IC50 [1] was > 4 µM, the IC50 [2] was > 4 µM and the IC50 [3] was 1.71 µM. For the same compound, the IC50 [4] was > 4 µM, the IC50 [5] was > 4 µM and the IC50 [6] was > 4 µM. For the same compound, the IC50 [7] was > 4 µM.
With `O=c1[nH]c2ccccc2n1C1CCN(Cc2ccc(-c3nc4cc5[nH]cnc5cc4nc3-c3ccccc3)cc2)CC1` the IC50 [8] was > 2.56 µM, the IC50 [9] was > 2.56 µM and the IC50 [10] was > 2.56 µM. For the same compound, the IC50 [11] was 1.38 µM, the IC50 [12] was > 2.56 µM and the IC50 [13] was > 2.56 µM. For the same compound, the IC50 [14] was 2 µM, the IC50 [15] was > 2.56 µM and the IC50 [3] was > 2.56 µM. For the same compound, the IC50 [16] was > 2.56 µM, the IC50 [17] was > 2.56 µM and the IC50 [18] was > 2.56 µM. For the same compound, the IC50 [19] was > 2.56 µM, the IC50 [20] was > 2.56 µM and the IC50 [21] was > 2.56 µM. For the same compound, the IC50 [4] was > 2.56 µM, the IC50 [22] was > 2.56 µM and the IC50 [23] was > 2.56 µM. The IC50 [24] was > 2.56 µM, the IC50 [25] was > 2.56 µM and the IC50 [5] was > 2.56 µM. The IC50 [26] was > 2.56 µM, the IC50 [27] was > 2.56 µM and the IC50 [28] was > 2.56 µM.
In the case of `Fc1cc(-c2cc[nH]/c(=N/c3ccc(-n4cnc(N5CCOCC5)n4)cc3)n2)cc(N2CCOCC2)c1`, the IC50 [8] is reported as 0.582 µM, the IC50 [9] is reported as > 5.12 µM and the IC50 [10] is reported as 3.12 µM. The IC50 [11] was 0.174 µM, the IC50 [12] was 0.912 µM and the IC50 [13] was > 5.12 µM. For the same compound, the IC50 [14] was 0.152 µM, the IC50 [15] was 0.624 µM and the IC50 [3] was 0.324 µM. The IC50 [16] was 1.08 µM, the IC50 [17] was 1.82 µM and the IC50 [18] was 3.04 µM. For the same compound, the IC50 [19] was 0.416 µM, the IC50 [20] was 0.562 µM and the IC50 [21] was > 5.12 µM. For the same compound, the IC50 [4] was 0.66 µM, the IC50 [22] was 0.958 µM and the IC50 [23] was 0.717 µM. For the same compound, the IC50 [24] was 0.405 µM, the IC50 [25] was 0.854 µM and the IC50 [5] was > 5.12 µM. The IC50 [26] was 0.642 µM, the IC50 [27] was 3.55 µM and the IC50 [28] was 0.954 µM.
With `CCn1c(-c2nonc2N)nc2cnc(Oc3cccc(NC(=O)c4ccc(OCCN5CCOCC5)cc4)c3)cc21` [GSK-269962A] the IC50 [1] was > 2.5 µM, the IC50 [2] was > 2.5 µM and the IC50 [3] was > 2.5 µM. For the same compound, the IC50 [29] was > 2.5 µM, the IC50 [4] was > 2.5 µM and the IC50 [5] was > 2.5 µM. For the same compound, the IC50 [6] was 2.36 µM and the IC50 [7] was > 2.5 µM.
For `Cc1[nH]c(/C=C2\C(=O)Nc3ccc(S(=O)(=O)Cc4c(Cl)cccc4Cl)cc32)c(C)c1C(=O)N1CCC[C@@H]1CN1CCCC1` [PHA-665752], the IC50 [1] was > 2 µM, the IC50 [2] was > 2 µM and the IC50 [4] was > 2 µM. The IC50 [6] was > 2 µM, the IC50 [7] was > 2 µM and the IC50 [30] was > 2 µM. The IC50 [31] was > 2 µM.
In the case of `CC(C)=CC[C@@H](O)C1=CC(=O)c2c(O)ccc(O)c2C1=O` [SHIKONIN], the IC50 [8] is reported as 6.9 µM, the IC50 [9] is reported as 1.88 µM and the IC50 [10] is reported as 1.23 µM. It also gave an IC50 [11] of 0.662 µM, an IC50 [12] of 2.05 µM and an IC50 [13] of 0.767 µM. For the same compound, the IC50 [14] was 0.538 µM, the IC50 [15] was 0.768 µM and the IC50 [3] was 9.65 µM. For the same compound, the IC50 [16] was > 16 µM, the IC50 [17] was 2.02 µM and the IC50 [18] was 0.544 µM. For the same compound, the IC50 [19] was > 16 µM, the IC50 [20] was 1.29 µM and the IC50 [21] was 14.1 µM. For the same compound, the IC50 [4] was 0.72 µM, the IC50 [22] was > 16 µM and the IC50 [23] was 0.0413 µM. The IC50 [24] was 0.588 µM, the IC50 [25] was > 16 µM and the IC50 [5] was 4.89 µM. The IC50 [26] was 0.272 µM, the IC50 [27] was 1.7 µM and the IC50 [28] was 0.53 µM.
